From patent US12152030B2 (NOVOSTAR PHARMACEUTICALS, LTD., priority 2019, dated 2024)
Where a name gives a salt, the structure may show the parent alone.

What was measured:
[1] = target: T1, STK17A/DRAK1 (Homo sapiens, UniProt Q9UEE5); test: KinomeScan, DRAK1; type: binding
T1 sequence (Q9UEE5 1-414): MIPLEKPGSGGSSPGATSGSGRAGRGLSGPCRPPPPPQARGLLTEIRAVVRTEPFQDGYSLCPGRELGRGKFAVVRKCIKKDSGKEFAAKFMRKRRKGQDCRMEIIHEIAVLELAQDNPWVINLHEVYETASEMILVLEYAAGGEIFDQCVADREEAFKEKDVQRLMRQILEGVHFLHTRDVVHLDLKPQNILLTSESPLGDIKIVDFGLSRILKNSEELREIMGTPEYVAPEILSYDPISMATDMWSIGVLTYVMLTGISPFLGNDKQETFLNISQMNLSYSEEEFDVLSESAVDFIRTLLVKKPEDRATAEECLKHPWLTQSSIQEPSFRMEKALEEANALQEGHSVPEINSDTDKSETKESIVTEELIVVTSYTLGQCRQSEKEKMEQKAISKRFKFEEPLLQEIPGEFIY
From the text: (§1) KinomeScan was used to determine the kinase selectivity of compound 2.

[2] = target: T2, GAK (Homo sapiens, UniProt O14976); test: KinomeScan, GAK; type: binding
T2 sequence (O14976 1-1311): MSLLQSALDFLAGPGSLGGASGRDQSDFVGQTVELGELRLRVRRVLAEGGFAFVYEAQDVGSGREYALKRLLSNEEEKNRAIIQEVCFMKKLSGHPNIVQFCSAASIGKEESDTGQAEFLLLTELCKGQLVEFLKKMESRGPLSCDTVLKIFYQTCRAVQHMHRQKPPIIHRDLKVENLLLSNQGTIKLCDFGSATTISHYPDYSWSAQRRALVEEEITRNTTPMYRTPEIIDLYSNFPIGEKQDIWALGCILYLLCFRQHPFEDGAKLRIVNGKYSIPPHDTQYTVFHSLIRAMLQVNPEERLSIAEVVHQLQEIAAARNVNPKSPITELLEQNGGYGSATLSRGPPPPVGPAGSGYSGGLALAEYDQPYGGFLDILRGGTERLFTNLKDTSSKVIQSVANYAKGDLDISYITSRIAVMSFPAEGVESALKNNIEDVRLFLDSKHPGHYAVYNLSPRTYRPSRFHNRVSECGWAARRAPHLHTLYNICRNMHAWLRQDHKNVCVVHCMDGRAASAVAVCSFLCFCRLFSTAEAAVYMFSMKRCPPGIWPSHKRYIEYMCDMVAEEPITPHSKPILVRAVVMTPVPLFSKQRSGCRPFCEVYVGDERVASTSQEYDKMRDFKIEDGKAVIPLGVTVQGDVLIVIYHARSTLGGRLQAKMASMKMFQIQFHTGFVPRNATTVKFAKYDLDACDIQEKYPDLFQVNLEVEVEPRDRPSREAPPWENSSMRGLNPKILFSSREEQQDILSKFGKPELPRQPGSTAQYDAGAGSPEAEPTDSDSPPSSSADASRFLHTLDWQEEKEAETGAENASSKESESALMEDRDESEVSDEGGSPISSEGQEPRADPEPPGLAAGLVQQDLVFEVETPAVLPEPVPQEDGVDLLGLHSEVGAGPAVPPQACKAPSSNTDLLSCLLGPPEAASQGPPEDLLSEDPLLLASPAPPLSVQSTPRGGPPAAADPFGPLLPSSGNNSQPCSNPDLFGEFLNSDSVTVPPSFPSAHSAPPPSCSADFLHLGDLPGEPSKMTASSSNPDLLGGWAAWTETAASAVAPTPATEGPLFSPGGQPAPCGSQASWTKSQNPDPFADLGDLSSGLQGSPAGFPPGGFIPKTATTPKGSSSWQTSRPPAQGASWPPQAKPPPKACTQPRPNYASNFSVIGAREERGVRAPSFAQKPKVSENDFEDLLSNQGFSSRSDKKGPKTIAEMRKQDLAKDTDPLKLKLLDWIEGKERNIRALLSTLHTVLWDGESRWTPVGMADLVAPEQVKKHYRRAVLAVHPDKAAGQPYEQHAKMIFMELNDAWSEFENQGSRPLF
From the text: as §1

[3] = target: MNK2 (Homo sapiens, UniProt Q9HBH9); test: MNK biological enzyme assay (HTRF kinase assay), MNK2; type: biochemical; design: purchased ThermoFisher PV5607; conditions: 1 ng/μl MNK2, 1 μM STK1 peptide, 100 μM ATP
Experimental: A HTRF kinase assay kit (Cisbio, catalog number 62ST1PEB) was used to determine the MNK inhibitory activity of the compounds. All kinase reactions were performed in the reaction buffer (provided in the kit). The final MNK1 reaction involved 3 ng/ul recombinant MNK1 (ThermoFisher, PV6023), 1 μM MNK substrate peptide STK1 (provided in the kit), 100 μM ATP, and different concentrations of the inhibitory compounds of interest. The final MNK2 reaction involved 1 ng/μl recombinant MNK2 (ThermoFisher, PV5607), 1 μM MNK substrate peptide STK1 (provided in the kit), 100 μM ATP, and different concentrations of the inhibitory compounds of interest. The final DMSO concentration in each of the reactions was 1%.
The kinase reaction was performed in a final volume of 10 μl in a 384-well white flat-bottomed polystyrene plate. The MNK1/2 enzyme was pre-incubated with the compound and substrate peptide for 5 minutes, and then ATP was added thereto. After addition of ATP, the kinase reaction was incubated at 25° C. for 120 minutes or 60 minutes. The reaction was subsequently terminated by adding 5 μl of EU3+ substrate antibody detection reagent and 5 μl of XL665 detection reagent, and incubating for another 60 minutes. The luminescent signal was detected with an EnVision microplate reader counter (Perkin Elmer), and the signal from 10-point dilution series of the compounds was used to calculate the compound concentration (IC50) required to achieve 50% inhibition of enzyme activity.
In this respect, IC50 values which are less than 0.01 μM were marked as “+++”, which are from 0.01 to 0.1 μM were marked as “++”, and which are greater than 0.1 and up to 10.0 μM were marked as “+”, and NA meant “not detected”.

Chain of MNK2 (Q9HBH9 whole entry): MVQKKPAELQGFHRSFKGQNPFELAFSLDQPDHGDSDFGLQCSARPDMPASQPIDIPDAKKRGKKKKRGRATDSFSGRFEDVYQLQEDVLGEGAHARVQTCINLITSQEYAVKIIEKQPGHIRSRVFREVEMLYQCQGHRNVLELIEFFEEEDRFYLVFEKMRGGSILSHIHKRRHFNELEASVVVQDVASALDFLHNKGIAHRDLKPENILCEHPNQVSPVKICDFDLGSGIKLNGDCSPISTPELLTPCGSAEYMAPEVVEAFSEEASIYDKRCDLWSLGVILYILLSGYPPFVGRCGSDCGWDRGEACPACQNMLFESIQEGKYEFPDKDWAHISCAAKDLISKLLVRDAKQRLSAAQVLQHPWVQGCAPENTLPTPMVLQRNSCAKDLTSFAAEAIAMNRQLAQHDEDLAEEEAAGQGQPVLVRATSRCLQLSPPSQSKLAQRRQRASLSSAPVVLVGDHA

inhibition at 1 µM [1]: 62% | Kd ([1]; dose response analysis, read-out: Kd of interaction with DRAK1): 370 nM | inhibition at 1 µM [2]: 97.8% | Kd ([2]; dose response analysis, read-out: Kd of interaction with GAK): 50 nM | IC50 [3]: < 10 nM
SMILES: Cc1c2c(c(=O)n3c1C(=O)NC31CCCCC1)Nc1cc(N)ncc1C2 [Compound 2, 8′-amino-12′-methyl-6′,11′-dihydro-2′H-spiro[cyclohexane-1,3′-imidazole[1′,5′:1,6]pyrido[3,4-B][1,6]naphthyridine]-1′,5′-dione hydrochloride]
